Reference: ChEMBL document CHEMBL1138727 (Bioorg Med Chem Lett, 2004)

Experiments:
[1] = biological target: Serine/threonine-protein kinase ATR (Homo sapiens, UniProt Q13535); assay: Inhibition of Ataxia telangiectasia related protein ATR kinase
[2] = biological target: Serine-protein kinase ATM (Homo sapiens, UniProt Q13315); assay: Inhibition of Mutated in ataxia telangiectasia protein ATM kinase
[3] = biological target: Serine/threonine-protein kinase mTOR (Homo sapiens, UniProt P42345); assay: Inhibition of Mammalian target of Rapamycin mTOR
[4] = biological target: Phosphatidylinositol 4,5-bisphosphate 3-kinase catalytic subunit alpha isoform (Homo sapiens, UniProt P42336); assay: Inhibition of Phosphatidylinositol 3-kinase p110 alpha subunit
[5] = biological target: T1, DNA-dependent protein kinase catalytic subunit (Homo sapiens, UniProt P78527); assay: Inhibitory activity against DNA-dependent protein kinase (DNA-PK) at 0.5 uM
[6] = biological target: T1, DNA-dependent protein kinase catalytic subunit; assay: Inhibitory activity against DNA-dependent protein kinase (DNA-PK)

Sequence of Serine/threonine-protein kinase ATR (Q13535 whole entry): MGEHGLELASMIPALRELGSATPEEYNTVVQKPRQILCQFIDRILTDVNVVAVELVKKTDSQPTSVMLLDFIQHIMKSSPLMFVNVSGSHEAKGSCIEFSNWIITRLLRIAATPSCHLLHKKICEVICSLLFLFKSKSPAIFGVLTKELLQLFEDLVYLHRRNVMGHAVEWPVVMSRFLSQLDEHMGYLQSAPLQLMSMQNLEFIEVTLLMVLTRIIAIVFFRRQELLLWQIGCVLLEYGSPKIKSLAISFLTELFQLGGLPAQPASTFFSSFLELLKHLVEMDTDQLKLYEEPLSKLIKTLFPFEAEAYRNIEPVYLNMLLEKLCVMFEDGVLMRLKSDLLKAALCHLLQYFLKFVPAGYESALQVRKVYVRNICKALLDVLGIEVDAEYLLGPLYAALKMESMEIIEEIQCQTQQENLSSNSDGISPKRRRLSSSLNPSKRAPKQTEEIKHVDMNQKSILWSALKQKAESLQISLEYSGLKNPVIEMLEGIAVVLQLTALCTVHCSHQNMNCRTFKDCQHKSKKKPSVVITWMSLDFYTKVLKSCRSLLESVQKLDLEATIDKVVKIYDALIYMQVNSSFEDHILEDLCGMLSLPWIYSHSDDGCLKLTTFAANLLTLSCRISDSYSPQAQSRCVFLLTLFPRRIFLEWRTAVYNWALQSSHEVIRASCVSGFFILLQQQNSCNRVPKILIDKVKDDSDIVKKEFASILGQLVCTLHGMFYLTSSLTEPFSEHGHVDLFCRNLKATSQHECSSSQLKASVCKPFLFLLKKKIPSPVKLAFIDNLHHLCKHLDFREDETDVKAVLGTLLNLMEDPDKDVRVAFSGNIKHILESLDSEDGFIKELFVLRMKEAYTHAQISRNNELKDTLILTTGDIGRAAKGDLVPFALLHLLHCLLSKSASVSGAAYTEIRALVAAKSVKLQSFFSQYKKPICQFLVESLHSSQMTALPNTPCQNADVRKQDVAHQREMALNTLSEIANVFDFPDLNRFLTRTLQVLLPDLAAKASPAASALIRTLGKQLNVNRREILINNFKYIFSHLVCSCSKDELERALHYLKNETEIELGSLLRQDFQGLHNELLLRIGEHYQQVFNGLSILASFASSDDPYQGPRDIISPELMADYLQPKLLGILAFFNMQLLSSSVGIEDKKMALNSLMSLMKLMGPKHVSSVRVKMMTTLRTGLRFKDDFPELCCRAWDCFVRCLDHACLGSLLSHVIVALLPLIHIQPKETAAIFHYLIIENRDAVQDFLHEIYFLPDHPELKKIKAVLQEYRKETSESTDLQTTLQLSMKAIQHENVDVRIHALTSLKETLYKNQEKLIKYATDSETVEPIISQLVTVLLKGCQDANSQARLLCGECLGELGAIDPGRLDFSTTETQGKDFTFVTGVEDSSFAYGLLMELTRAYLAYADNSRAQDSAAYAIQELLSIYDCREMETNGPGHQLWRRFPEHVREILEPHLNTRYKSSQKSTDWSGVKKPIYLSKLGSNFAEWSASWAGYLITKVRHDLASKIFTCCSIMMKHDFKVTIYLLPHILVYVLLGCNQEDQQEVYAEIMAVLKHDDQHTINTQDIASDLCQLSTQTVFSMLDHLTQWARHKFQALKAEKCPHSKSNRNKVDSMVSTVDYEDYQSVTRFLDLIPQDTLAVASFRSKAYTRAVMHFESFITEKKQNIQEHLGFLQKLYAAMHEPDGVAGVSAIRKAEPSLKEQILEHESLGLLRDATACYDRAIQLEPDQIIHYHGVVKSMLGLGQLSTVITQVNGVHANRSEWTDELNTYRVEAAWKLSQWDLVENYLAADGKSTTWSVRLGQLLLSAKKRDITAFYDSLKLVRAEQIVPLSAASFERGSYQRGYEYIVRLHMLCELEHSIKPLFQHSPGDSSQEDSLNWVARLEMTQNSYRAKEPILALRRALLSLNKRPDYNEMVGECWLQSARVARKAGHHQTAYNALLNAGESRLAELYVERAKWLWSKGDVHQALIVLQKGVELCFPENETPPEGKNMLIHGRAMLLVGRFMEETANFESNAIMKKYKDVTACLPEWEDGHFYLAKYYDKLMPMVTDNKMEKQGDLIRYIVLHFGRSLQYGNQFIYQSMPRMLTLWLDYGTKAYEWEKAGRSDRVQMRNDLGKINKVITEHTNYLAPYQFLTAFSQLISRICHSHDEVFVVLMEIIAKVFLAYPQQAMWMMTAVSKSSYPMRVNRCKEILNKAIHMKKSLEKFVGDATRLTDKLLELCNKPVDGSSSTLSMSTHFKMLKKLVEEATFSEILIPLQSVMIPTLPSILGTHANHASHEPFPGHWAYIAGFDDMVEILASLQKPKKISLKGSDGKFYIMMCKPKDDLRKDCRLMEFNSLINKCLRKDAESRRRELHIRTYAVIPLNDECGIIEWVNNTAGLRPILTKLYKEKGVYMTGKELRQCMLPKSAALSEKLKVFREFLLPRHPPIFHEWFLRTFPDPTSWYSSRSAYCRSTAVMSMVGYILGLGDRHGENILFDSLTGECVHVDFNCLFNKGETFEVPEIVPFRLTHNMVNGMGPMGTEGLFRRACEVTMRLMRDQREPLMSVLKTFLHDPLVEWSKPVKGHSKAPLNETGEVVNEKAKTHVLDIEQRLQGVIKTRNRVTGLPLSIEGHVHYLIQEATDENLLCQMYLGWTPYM
Sequence of Phosphatidylinositol 4,5-bisphosphate 3-kinase catalytic subunit alpha isoform (P42336 whole entry, canonical isoform): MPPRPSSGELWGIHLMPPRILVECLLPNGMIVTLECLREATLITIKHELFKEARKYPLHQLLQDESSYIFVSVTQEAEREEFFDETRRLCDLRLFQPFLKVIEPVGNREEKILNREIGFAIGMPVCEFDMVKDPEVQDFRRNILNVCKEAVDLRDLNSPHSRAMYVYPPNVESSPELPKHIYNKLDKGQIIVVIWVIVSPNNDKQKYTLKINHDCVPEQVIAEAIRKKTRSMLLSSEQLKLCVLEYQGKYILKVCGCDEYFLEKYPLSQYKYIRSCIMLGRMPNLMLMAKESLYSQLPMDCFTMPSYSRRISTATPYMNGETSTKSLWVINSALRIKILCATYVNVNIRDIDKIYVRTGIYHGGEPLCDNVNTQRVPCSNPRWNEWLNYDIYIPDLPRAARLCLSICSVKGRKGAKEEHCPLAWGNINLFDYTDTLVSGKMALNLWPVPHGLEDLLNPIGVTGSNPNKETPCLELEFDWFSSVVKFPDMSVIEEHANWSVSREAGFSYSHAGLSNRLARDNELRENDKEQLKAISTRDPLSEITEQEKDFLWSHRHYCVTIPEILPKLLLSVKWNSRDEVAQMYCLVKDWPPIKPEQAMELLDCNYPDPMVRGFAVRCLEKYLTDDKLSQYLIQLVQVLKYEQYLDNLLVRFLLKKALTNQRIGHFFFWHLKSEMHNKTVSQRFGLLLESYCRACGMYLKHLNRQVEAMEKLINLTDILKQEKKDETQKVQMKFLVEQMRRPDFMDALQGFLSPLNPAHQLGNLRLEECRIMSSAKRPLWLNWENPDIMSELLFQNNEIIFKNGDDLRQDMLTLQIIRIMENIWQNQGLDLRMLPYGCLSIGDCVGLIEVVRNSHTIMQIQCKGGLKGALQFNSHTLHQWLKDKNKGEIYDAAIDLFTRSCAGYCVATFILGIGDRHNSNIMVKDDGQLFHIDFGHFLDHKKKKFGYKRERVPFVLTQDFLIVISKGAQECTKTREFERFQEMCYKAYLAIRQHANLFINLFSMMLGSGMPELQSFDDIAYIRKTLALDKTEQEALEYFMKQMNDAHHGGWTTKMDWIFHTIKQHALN

In the case of `O=c1cc(N2CCOCC2)oc2c1ccc1ccccc12`, the IC50 [1] is reported as > 100 µM, the IC50 [2] is reported as > 100 µM and the IC50 [3] is reported as 6.4 µM. It also gave an IC50 [4] of 13 µM.
`O=c1cc(N2CCOCC2)oc2c(-c3cccc4c3oc3ccccc34)cccc12` was tested, and the IC50 [5] was 0.04 µM.
Work on `CC(=O)c1ccc(-c2cccc3c(=O)cc(N4CCOCC4)oc23)s1` yielded an IC50 [5] of 0.8 µM.
`O=c1cc(N2CCOCC2)oc2c(-c3cccc4c3sc3ccccc34)cccc12` was tested, and the IC50 [6] was 0.014 µM, the IC50 [1] was > 100 µM and the IC50 [2] was > 100 µM. For the same molecule, the IC50 [3] was 1.7 µM, the IC50 [5] was 0.02 µM and the IC50 [4] was 5 µM.
`O=c1cc(N2CCOCC2)oc2c(-c3ccc(CO)cc3)cccc12` showed an IC50 [5] of 0.6 µM.
In the case of `O=c1cc(N2CCOCC2)oc2c(-c3ccsc3)cccc12`, the IC50 [5] is reported as 0.3 µM.
With `O=c1cc(N2CCOCC2)oc2c(-c3cc4ccccc4s3)cccc12` the IC50 [5] was 0.8 µM.
Molecule `O=c1cc(N2CCOCC2)oc2c(-c3cccs3)cccc12` has an IC50 [5] of 0.3 µM.
For `COc1ccc(-c2cccc3c(=O)cc(N4CCOCC4)oc23)cc1`, the IC50 [5] was 0.9 µM.
`O=c1cc(N2CCOCC2)oc2ccccc12` gave an IC50 [5] of 1.3 µM.
For `CC1CN(c2cc(=O)c3ccc4ccccc4c3o2)CCO1` (stereo not drawn), the IC50 [5] was 0.19 µM.
`O=c1cc(N2CCOCC2)oc2c(-c3ccccc3)cccc12` [LY-294002] was tested, and the IC50 [6] was 1.2 µM, the IC50 [1] was > 100 µM and the IC50 [2] was > 100 µM. The IC50 [3] was 2.5 µM.
